# Measured values from patent US10695296B2, “Formulations, methods, kit, and dosage forms for improved stability of an active pharmaceutical ingredient” (Asana BioSciences, LLC, priority 2017, dated 2020).
# Assay: Dissolution, USP <711> Apparatus 2 paddle method at 50 rpm
# Format: physicochemical
# Details: 500 ml 0.01 N HCl or 50 mM phosphate buffer (pH 6.8), 0.5% sodium lauryl sulfate, paddle 50 rpm
# Protocol: The dissolution characteristics of the spray-dried formulation prepared in Example 2 above were measured by suspending the formulation in 500 ml 0.01 N HCl or 50 mM phosphate buffer (pH 6.8), 0.5% sodium lauryl sulfate, and measuring dissolution by the USP <711> Apparatus 2 (paddle method) at 50 rpm. As a control, particles of crystalline active ingredient N-(3-(2-(6-amino-4-(trifluoromethyl)pyridin-3-yl)-4-morpholinopyrido[3,2-d]pyrimidin-6-yl)-2-fluorophenyl)-3-fluoropropane-1-sulfonamide (as prepared in Example 7 below) was suspended in either 500 ml 0.01 N HCl or 50 mM phosphate buffer (pH 6.8), 0.5% sodium lauryl sulfate and dissolution measured by the same method.
structure (smiles),measurement,value
"Nc1cc(C(F)(F)F)c(-c2nc(N3CCOCC3)c3nc(-c4cccc(NS(=O)(=O)CCCF)c4F)ccc3n2)cn1 [crystalline active ingredient, N-(3-(2-(6-amino-4-(trifluoromethyl)pyridin-3-yl)-4-morpholinopyrido[3,2-d]pyrimidin-6-yl)-2-fluorophenyl)-3-fluoropropane-1-sulfonamide]",dissolution state after 60 minutes,still not fully dissolved
